Test results published in PubChem BioAssay AID1963856 (Molecular Pharmacology Branch, DTP, NCI, 2024).

Tested on: LG0567-F671-PDC KRAS tumor spheroid viability
Test: Anticancer human tumor LG0567-F671-PDC patient-derived lung adenocarcinoma cell line growth inhibition [KRAS2]
Conditions: spheroids with HUVEC and MSC; for IC50: curve of first compound; for viability, T/C: stronger effect = lower value
Summary of the method: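 KRAS-mutant tumor cells were grown as spheroids with HUVEC endothelial cells and human MSCs as stroma. Targeted agents were tested alone and with KRAS pathway inhibitors. Doses started at or near clinical Cmax, or 10 microM, descending half-log.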

[1] = second compound 0.1 µM, first compound 0.000316 µM
[2] = second compound 0.1 µM, first compound 0.001 µM
[3] = second compound 0.1 µM, first compound 0.00316 µM
[4] = second compound 0.1 µM, first compound 0.01 µM
[5] = second compound 0.1 µM, first compound 0.0316 µM
[6] = second compound 0.316 µM, first compound 0.000316 µM
[7] = second compound 0.316 µM, first compound 0.001 µM
[8] = second compound 0.316 µM, first compound 0.00316 µM
[9] = second compound 0.316 µM, first compound 0.01 µM
[10] = second compound 0.316 µM, first compound 0.0316 µM
[11] = second compound 1 µM, first compound 0.000316 µM
[12] = second compound 1 µM, first compound 0.001 µM
[13] = second compound 1 µM, first compound 0.00316 µM
[14] = second compound 1 µM, first compound 0.01 µM
[15] = second compound 1 µM, first compound 0.0316 µM
[16] = second compound 3.16 µM, first compound 0.000316 µM
[17] = second compound 3.16 µM, first compound 0.001 µM
[18] = second compound 3.16 µM, first compound 0.00316 µM
[19] = second compound 3.16 µM, first compound 0.01 µM
[20] = second compound 3.16 µM, first compound 0.0316 µM
[21] = second compound 10 µM, first compound 0.000316 µM
[22] = second compound 10 µM, first compound 0.001 µM
[23] = second compound 10 µM, first compound 0.00316 µM
[24] = second compound 10 µM, first compound 0.01 µM
[25] = second compound 10 µM, first compound 0.0316 µM
[26] = second compound 0.1 µM, first compound 0.1 µM
[27] = second compound 0.316 µM, first compound 0.1 µM
[28] = second compound 1 µM, first compound 0.1 µM
[29] = second compound 3.16 µM, first compound 0.1 µM
[30] = second compound 10 µM, first compound 0.1 µM
[31] = second compound 0.1 µM, first compound 0.316 µM
[32] = second compound 0.1 µM, first compound 1 µM
[33] = second compound 0.1 µM, first compound 3.16 µM
[34] = second compound 0.1 µM, first compound 10 µM
[35] = second compound 0.316 µM, first compound 0.316 µM
[36] = second compound 0.316 µM, first compound 1 µM
[37] = second compound 0.316 µM, first compound 3.16 µM
[38] = second compound 0.316 µM, first compound 10 µM
[39] = second compound 1 µM, first compound 0.316 µM
[40] = second compound 1 µM, first compound 1 µM
[41] = second compound 1 µM, first compound 3.16 µM
[42] = second compound 1 µM, first compound 10 µM
[43] = second compound 3.16 µM, first compound 0.316 µM
[44] = second compound 3.16 µM, first compound 1 µM
[45] = second compound 3.16 µM, first compound 3.16 µM
[46] = second compound 3.16 µM, first compound 10 µM
[47] = second compound 10 µM, first compound 0.316 µM
[48] = second compound 10 µM, first compound 1 µM
[49] = second compound 10 µM, first compound 3.16 µM
[50] = second compound 10 µM, first compound 10 µM
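Also: drug exposure lasted seven days after spheroids formed for three days.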
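For viability, T/C in this document: 100% = DMSO vehicle control viability.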

CC(=O)Nc1cccc(-n2c(=O)n(C3CC3)c(=O)c3c(Nc4ccc(I)cc4F)n(C)c(=O)c(C)c32)c1 + CNCc1ccccc1-c1csc(C(C)Nc2nc(C)nc3cc(OC)c(OC)cc23)c1
IC50 (second compound 0.1 µM): 2.08 nM
IC50 (second compound 0.316 µM): 0.799 nM
IC50 (second compound 1 µM): 0.813 nM
IC50 (second compound 3.16 µM): < 0.1 nM
IC50 (second compound 10 µM): < 0.1 nM
viability, T/C (second compound 0.1 µM, first compound 0.0001 µM): 73.6%
viability, T/C [1]: 68.3%
viability, T/C [2]: 49.1%
viability, T/C [3]: 52.5%
viability, T/C [4]: 29.4%
viability, T/C [5]: 11.6%
viability, T/C (second compound 0.316 µM, first compound 0.0001 µM): 65.1%
viability, T/C [6]: 54.7%
viability, T/C [7]: 47.8%
viability, T/C [8]: 33.4%
viability, T/C [9]: 39%
viability, T/C [10]: 8.76%
viability, T/C (second compound 1 µM, first compound 0.0001 µM): 61.8%
viability, T/C [11]: 63.2%
viability, T/C [12]: 46.9%
viability, T/C [13]: 26.8%
viability, T/C [14]: 17.9%
viability, T/C [15]: 8.07%
viability, T/C (second compound 3.16 µM, first compound 0.0001 µM): 2.63%
viability, T/C [16]: 1.14%
viability, T/C [17]: 0.22%
viability, T/C [18]: 0.57%
viability, T/C [19]: 0.29%
viability, T/C [20]: 0.3%
viability, T/C (second compound 10 µM, first compound 0.0001 µM): 1.49%
viability, T/C [21]: 0.17%
viability, T/C [22]: 0.53%
viability, T/C [23]: 0.14%
viability, T/C [24]: 0.14%
viability, T/C [25]: 0.24%

CN(C)C/C=C/C(=O)Nc1cc2c(Nc3ccc(F)c(Cl)c3)ncnc2cc1O[C@H]1CCOC1 + CNCc1ccccc1-c1csc(C(C)Nc2nc(C)nc3cc(OC)c(OC)cc23)c1
IC50 (second compound 0.1 µM): 24.8 nM
IC50 (second compound 0.316 µM): 17.1 nM
IC50 (second compound 1 µM): 6.76 nM
IC50 (second compound 3.16 µM): 0.404 nM
IC50 (second compound 10 µM): < 0.316 nM
viability, T/C [1]: 88%
viability, T/C [2]: 71.5%
viability, T/C [3]: 65.5%
viability, T/C [4]: 49%
viability, T/C [5]: 46.9%
viability, T/C [26]: 51.3%
viability, T/C [6]: 77.9%
viability, T/C [7]: 72.8%
viability, T/C [8]: 59.7%
viability, T/C [9]: 52%
viability, T/C [10]: 43.5%
viability, T/C [27]: 53.1%
viability, T/C [11]: 54.7%
viability, T/C [12]: 61.3%
viability, T/C [13]: 49.4%
viability, T/C [14]: 48.2%
viability, T/C [15]: 44.2%
viability, T/C [28]: 37.4%
viability, T/C [16]: 54.9%
viability, T/C [17]: 31.7%
viability, T/C [18]: 0.31%
viability, T/C [19]: 0.13%
viability, T/C [20]: 0.63%
viability, T/C [29]: 0.28%
viability, T/C [21]: 0.28%
viability, T/C [22]: 0.22%
viability, T/C [23]: 0.1%
viability, T/C [24]: 0.38%
viability, T/C [25]: 1.14%
viability, T/C [30]: 0.66%

COC(=O)c1ccc2c(C(=Nc3ccc(N(C)C(=O)CN4CCN(C)CC4)cc3)c3ccccc3)c(O)[nH]c2c1 + CNCc1ccccc1-c1csc(C(C)Nc2nc(C)nc3cc(OC)c(OC)cc23)c1
IC50 (second compound 0.1 µM): > 10000 nM
IC50 (second compound 0.316 µM): < 31.6 nM
IC50 (second compound 1 µM): 426 nM
IC50 (second compound 3.16 µM): < 31.6 nM
IC50 (second compound 10 µM): < 31.6 nM
viability, T/C [5]: 66.3%
viability, T/C [26]: 57.4%
viability, T/C [31]: 57.2%
viability, T/C [32]: 59.2%
viability, T/C [33]: 65.4%
viability, T/C [34]: 56.4%
viability, T/C [10]: 50.6%
viability, T/C [27]: 45.5%
viability, T/C [35]: 39.7%
viability, T/C [36]: 53.6%
viability, T/C [37]: 29.4%
viability, T/C [38]: 41.7%
viability, T/C [15]: 52.5%
viability, T/C [28]: 48.5%
viability, T/C [39]: 52.8%
viability, T/C [40]: 46.9%
viability, T/C [41]: 2.38%
viability, T/C [42]: 3.49%
viability, T/C [20]: 1.05%
viability, T/C [29]: 2.43%
viability, T/C [43]: 0.68%
viability, T/C [44]: 0.71%
viability, T/C [45]: 0.64%
viability, T/C [46]: 0.52%
viability, T/C [25]: 1.55%
viability, T/C [30]: 1.48%
viability, T/C [47]: 2.71%
viability, T/C [48]: 2.27%
viability, T/C [49]: 0.69%
viability, T/C [50]: 0.4%

COc1cc(Nc2ncc3c(n2)-c2ccc(Cl)cc2C(c2c(F)cccc2OC)=NC3)ccc1C(=O)O + CNCc1ccccc1-c1csc(C(C)Nc2nc(C)nc3cc(OC)c(OC)cc23)c1
IC50 (second compound 0.1 µM): 3000 nM
IC50 (second compound 0.316 µM): 343 nM
IC50 (second compound 1 µM): 262 nM
IC50 (second compound 3.16 µM): < 31.6 nM
IC50 (second compound 10 µM): < 31.6 nM
viability, T/C [5]: 72%
viability, T/C [26]: 62%
viability, T/C [31]: 58.1%
viability, T/C [32]: 60.6%
viability, T/C [33]: 51.4%
viability, T/C [34]: 37.8%
viability, T/C [10]: 56.3%
viability, T/C [27]: 54.3%
viability, T/C [35]: 48.2%
viability, T/C [36]: 45.6%
viability, T/C [37]: 42.4%
viability, T/C [38]: 32%
viability, T/C [15]: 52.4%
viability, T/C [28]: 53.4%
viability, T/C [39]: 47%
viability, T/C [40]: 48.2%
viability, T/C [41]: 37.8%
viability, T/C [42]: 29%
viability, T/C [20]: 12.8%
viability, T/C [29]: 16.8%
viability, T/C [43]: 14%
viability, T/C [44]: 3.3%
viability, T/C [45]: 0.97%
viability, T/C [46]: 1.05%
viability, T/C [25]: 0.9%
viability, T/C [30]: 0.24%
viability, T/C [47]: 0.13%
viability, T/C [48]: 0.43%
viability, T/C [49]: 0.12%
viability, T/C [50]: 1.01%

O=C(c1cc(Cc2n[nH]c(=O)c3ccccc23)ccc1F)N1CCN(C(=O)C2CC2)CC1 + CNCc1ccccc1-c1csc(C(C)Nc2nc(C)nc3cc(OC)c(OC)cc23)c1
IC50 (second compound 0.1 µM): > 10000 nM
IC50 (second compound 0.316 µM): > 10000 nM
IC50 (second compound 1 µM): > 10000 nM
IC50 (second compound 3.16 µM): 3590 nM
IC50 (second compound 10 µM): < 31.6 nM
viability, T/C [5]: 88.1%
viability, T/C [26]: 95.4%
viability, T/C [31]: 80.6%
viability, T/C [32]: 79.5%
viability, T/C [33]: 74.1%
viability, T/C [34]: 81.6%
viability, T/C [10]: 69.6%
viability, T/C [27]: 58.8%
viability, T/C [35]: 63.9%
viability, T/C [36]: 52.8%
viability, T/C [37]: 61.5%
viability, T/C [38]: 60.5%
viability, T/C [15]: 78.1%
viability, T/C [28]: 72.2%
viability, T/C [39]: 68.3%
viability, T/C [40]: 71.5%
viability, T/C [41]: 67%
viability, T/C [42]: 64.4%
viability, T/C [20]: 46.5%
viability, T/C [29]: 80%
viability, T/C [43]: 84.2%
viability, T/C [44]: 0.72%
viability, T/C [45]: 69.7%
viability, T/C [46]: 0.31%
viability, T/C [25]: 0.22%
viability, T/C [30]: 0.82%
viability, T/C [47]: 0.19%
viability, T/C [48]: 0.61%
viability, T/C [49]: 0.17%
viability, T/C [50]: 0.2%
